Measurements as given in patent US4439606A, “Antiatherosclerotic 1-piperazinecarbonyl compounds” (American Cyanamid Company, priority 1982, dated 1984).

Experiments:
[1] = target: T1, fatty acyl CoA:-cholesterol acyl transferase (ACAT) (Rattus norvegicus, UniProt O70536); experiment: Inhibition of enzymatic esterification of cholesterol (ACAT inhibition), rat adrenal supernatant; format: biochemical; details: final concentration 5.2 μg./ml., 37° C., 30 minutes
T1 construct: The supernatant, containing the microsomal fraction, served as the source of the cholesterol-esterifying enzyme; from tissue; host or cells: rat adrenals, 1000 x g supernatant containing the microsomal fraction
T1 sequence (O70536 1-545): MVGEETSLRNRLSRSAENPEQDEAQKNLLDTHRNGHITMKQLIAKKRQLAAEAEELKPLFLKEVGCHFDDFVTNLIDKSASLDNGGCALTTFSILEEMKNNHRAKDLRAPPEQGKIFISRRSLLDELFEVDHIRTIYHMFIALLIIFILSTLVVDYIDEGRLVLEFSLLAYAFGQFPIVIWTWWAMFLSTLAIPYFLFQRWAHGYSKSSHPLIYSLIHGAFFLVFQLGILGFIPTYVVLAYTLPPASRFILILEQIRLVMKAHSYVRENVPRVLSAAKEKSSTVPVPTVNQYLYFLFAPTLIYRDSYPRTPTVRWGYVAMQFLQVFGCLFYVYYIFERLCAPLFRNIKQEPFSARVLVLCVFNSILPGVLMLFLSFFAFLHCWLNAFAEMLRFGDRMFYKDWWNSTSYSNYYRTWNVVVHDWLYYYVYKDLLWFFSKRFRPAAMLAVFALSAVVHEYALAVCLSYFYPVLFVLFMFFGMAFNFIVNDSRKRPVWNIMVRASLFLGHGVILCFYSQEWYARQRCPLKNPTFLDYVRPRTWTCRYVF
Protocol: The compounds of the present invention were tested for their ability to inhibit the enzymatic esterification of cholesterol according to the procedure of Hashimoto, et al., Life Sci., 12(Part II), 1-12 (1973).
Rat adrenals were homogenized in 0.2 M monobasic potassium phosphate buffer, pH 7.4, and centrifuged at 1000 times gravity for 15 minutes at 5° C. The supernatant, containing the microsomal fraction, served as the source of the cholesterol-esterifying enzyme, fatty acyl CoA:-cholesterol acyl transferase (ACAT). A mixture comprising 50 parts of adrenal supernatant, 10 parts of bovine serum albumin (50 mg./ml.), 3 parts of test compound (final concentration 5.2 μg./ml.) and 500 parts of buffer were preincubated at 37° C. for 10 minutes, following which 20 parts of oleoyl […] were added and the final mixture was incubated at 37° C. for 30 minutes. A control mixture, omitting the test compound, was prepared and treated in the same manner. The lipids from the incubation mixture were extracted into an organic solvent and separated by thin-layer chromatography. The cholesterol ester fraction was counted in a scintillation counter. A statistically significant inhibition of the ACAT enzyme is the criterion for activity.

[2] = system: aortic sterol content; experiment: Decrease of aortic sterol content without effecting serum sterol in cholesterol-fed cockerels; format: in vivo, Day-old Cockerels; parameters: key: Active: Compounds which statistically decrease the aortic sterol content without having an effect on serum sterol are considered to be active; details: 525 mg. test compound and 20 g. cholesterol per kg. of diet, 14 days
Protocol: The compounds were further tested for their ability to decrease aortic sterol content without effecting serum sterol.
Day-old Cockerels were placed on diets consisting of pullet starter mash supplemented with either 20 g. cholesterol (control group) or 20 g. cholesterol and 525 mg. test compound (drug-treated group) per kg. of diet.
For the control diet, 20 g. of cholesterol was dissolved in 200 ml. of chloroform, mixed into one kg. of pullet starter mash and then the choloroform was removed by evaporation.
For the drug-treatment group, 525 mg. of the test compound was dissolved in 100 ml. of chloroform, mixed into a diet prepared as described above and then the chloroform was evaporated.
The cockerels were housed three per cage and given water and their respective diet ad libitum for 14 days. Blood was collected by cardiac puncture and the serum was saponified [Trinder, P., Analyst, 77, 321 (1952)] and extracted and the cholesterol content determinted [Zlatkis, A., et al., J. Lab Clin Med., 41 486 (1953)]. The aortae were removed, cleaned of adventitial tissue and the sterol content determined according to the above procedures. Compounds which statistically decrease the aortic sterol content without having an effect on serum sterol are considered to be active.

inhibition at 5.2 µg/mL [1] [%]	Compound	Result (decrease of aortic sterol content without effect on serum sterol) [2]
38.3	O=C(Cc1ccc(Cl)c(Cl)c1)N1CCN(c2cnccn2)CC1 [1-(3,4-Dichlorophenylacetyl)-4-(2-pyrazinyl)piperazine]	Active
36.4	O=C(Cc1ccc([N+](=O)[O-])cc1)N1CCN(c2cnccn2)CC1 [1-(p-Nitrophenylacetyl)-4-(2-pyrazinyl)piperazine]	Active
34.6	O=C(Cc1ccccc1)N1CCN(c2ccccc2)CC1 [1-phenyl-4-phenylacetylpiperazine, 1-Phenyl-4-phenylacetylpiperazine]	Active
